We go through 25 compounds from patent US9643967B2, “Pyrrolo[3,2-c]pyridine derivatives as TLR inhibitors” (TAKEDA PHARMACEUTICAL COMPANY LIMITED, priority 2013, dated 2017).

In this assay the target is T1, hTLR9 (Homo sapiens, UniProt Q9NR96).
T1 construct: expressed in transfected cells; host or cells: HEK-Blue-hTLR9 cells (HEK293)
T1 sequence (Q9NR96 26-1032): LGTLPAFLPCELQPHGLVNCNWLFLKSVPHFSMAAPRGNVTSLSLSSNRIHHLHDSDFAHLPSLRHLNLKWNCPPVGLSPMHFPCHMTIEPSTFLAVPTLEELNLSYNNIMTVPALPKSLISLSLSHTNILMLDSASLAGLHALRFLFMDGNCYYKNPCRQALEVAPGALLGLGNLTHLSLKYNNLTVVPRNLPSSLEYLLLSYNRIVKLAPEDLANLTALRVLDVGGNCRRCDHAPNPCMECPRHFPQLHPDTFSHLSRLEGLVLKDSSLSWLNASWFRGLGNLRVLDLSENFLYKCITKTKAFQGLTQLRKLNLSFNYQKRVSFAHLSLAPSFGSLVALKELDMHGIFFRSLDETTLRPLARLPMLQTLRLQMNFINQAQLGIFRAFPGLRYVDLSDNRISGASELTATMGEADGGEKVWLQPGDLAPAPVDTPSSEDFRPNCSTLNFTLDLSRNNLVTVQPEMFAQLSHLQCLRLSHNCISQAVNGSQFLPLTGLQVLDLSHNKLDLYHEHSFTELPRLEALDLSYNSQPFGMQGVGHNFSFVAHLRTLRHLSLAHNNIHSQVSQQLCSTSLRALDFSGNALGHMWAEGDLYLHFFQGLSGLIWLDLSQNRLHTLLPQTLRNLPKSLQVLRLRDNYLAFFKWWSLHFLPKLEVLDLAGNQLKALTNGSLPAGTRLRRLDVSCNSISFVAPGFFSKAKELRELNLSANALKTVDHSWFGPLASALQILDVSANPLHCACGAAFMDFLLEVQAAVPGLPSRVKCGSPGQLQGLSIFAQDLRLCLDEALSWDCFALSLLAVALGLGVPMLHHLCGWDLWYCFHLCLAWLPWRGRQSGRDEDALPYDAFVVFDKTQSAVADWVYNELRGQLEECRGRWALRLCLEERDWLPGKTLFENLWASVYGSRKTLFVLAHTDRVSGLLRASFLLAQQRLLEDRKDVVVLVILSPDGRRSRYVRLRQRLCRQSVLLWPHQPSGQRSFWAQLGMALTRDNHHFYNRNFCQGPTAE
Put plainly: hTLR9 antagonism (SEAP inhibition assay) in HEK-Blue-hTLR9 (HEK293) cells, ODN-2006 stimulated. It counts as cell-based. The settings on record: HEK-Blue hTLR9, 1 μM; SEAP, HEK-Blue-hTLR9 cells; read-out: hTLR9 inhibitory activity (% at 1 μM). The protocol:
hTLR9 Antagonism (SEAP Inhibition Assay) in HEK293 Cell Lines
The SEAP reporter gene in HEK-Blue™-hTLR9 cells is placed under the control of the IFN-b minimal promoter fused to five NF-kB and AP-1 binding sites. The stimulation with a TLR9 ligand (ODN-2006) activates NF-kB and AP-1 which induces the production of SEAP. Levels of SEAP are determined with QUANTI-Blue™ detection medium that turns purple/blue in the presence of alkaline phosphatase. Decrease in the levels of SEAP production as indicated by reduction in absorbance at 650 nm is directly co-related with the TLR9 inhibitory activity of the antagonist (NCE).
HEK-Blue™-hTLR9 cells were maintained in DMEM with 10% FBS, 1% Penicillin/Streptomycin/Amphotericin (complete growth medium) and 0.2% Normocin. For the assay, cells were dissociated by washing in 1×PBS and re-suspended in complete DMEM. Cells were seeded at a density of 20000 cells per well; (40 μl per well) in a 384 well assay plate.
5 μl of 10× antagonist (NCE) was added to the cells in triplicates for each concentration. The plate was incubated for half an hour at 37° C. with 5% CO2. 5 μl of agonist (ODN-2006) was added and the plate was incubated overnight for 18 hours at 37° C. with 5% CO2. 5 μl of supernatant was transferred to a 384 well reading plate and to this 45 μl of Quanti-Blue™ detection reagent was added. The plate was then incubated for an hour at 37° C. SEAP activity in the supernatant was indicated by change in the pink color of Quanti-Blue™ detection reagent to purple/blue and the absorbance was read at 650 nm in the end point mode.
In the case of `CC(C)N1CCN(c2ccc(-c3nccc4[nH]c(CN5CCOCC5)cc34)cc2)CC1` [Example A1, 4-[[4-[4-(4-isopropylpiperazin-1-yl)phenyl]-1H-pyrrolo[3,2-c]pyridin-2-yl]methyl]morpholine], the inhibition at 1 µM was 100%.
Under `CN1CCN(c2ccc(-c3nccc4[nH]c(CN5CCOCC5)cc34)cc2)CC1` [Example A2, 4-[[4-[4-(4-methylpiperazin-1-yl)phenyl]-1H-pyrrolo[3,2-c]pyridin-2-yl]methyl] morpholine] stands 100%.
Under `CCN1CCN(c2ccc(-c3nccc4[nH]c(CN5CCOCC5)cc34)cc2)CC1` [Example A3, 4-[[4-[4-(4-ethylpiperazin-1-yl)phenyl]-1H-pyrrolo[3,2-c]pyridin-2-yl]methyl] morpholine] stands 100%; under `Cc1cc2[nH]c(CN3CCOCC3)cc2c(-c2ccc(N3CCN(C(C)C)CC3)cc2)n1` [Example A4, 4-[[4-[4-[4-isopropylpiperazin-1-yl)phenyl]-6-methyl-1H-pyrrolo[3,2-c]pyridin-2-yl]methyl] morpholine], 100%.
`CCN1CCN(c2ccc(-c3nc(C)cc4[nH]c(CN5CCOCC5)cc34)cc2)CC1` [Example A5, 4-[[4-[4-(4-ethylpiperazin-1-yl)phenyl]-6-methyl-1H-pyrrolo[3,2-c]pyridin-2-yl]methyl] morpholine]: the inhibition at 1 µM amounted to 100%.
To `CC(C)N1CCN(c2ccc(-c3nccc4c3cc(CN3CCOCC3)n4C)cc2)CC1` [Example A8, 4-[[4-[4-(4-isopropylpiperazin-1-yl)phenyl]-1-methyl-pyrrolo[3,2-c]pyridin-2-yl]methyl] morpholine] belongs 100%; to `CN1CCN(c2ccc(-c3nccc4c3cc(CN3CCOCC3)n4C)cc2)CC1` [Example A9, 4-[[1-methyl-4-[4-(4-methylpiperazin-1-yl)phenyl]pyrrolo[3,2-c]pyridin-2-yl]methyl] morpholine], 100%; to `CC(C)N1CCN(c2ccc(-c3nccc4[nH]c(CN5CCC(O)CC5)cc34)cc2)CC1` [Example A12, 1-[[4-[4-(4-isopropylpiperazin-1-yl)phenyl]-1H-pyrrolo[3,2-c]pyridin-2-yl]methyl] piperidin-4-ol], 100%.
To `CC(C)N1CCN(c2ccc(-c3nccc4[nH]c(CN5CCC6(CC5)CC(O)C6)cc34)cc2)CC1` [Example A13, 7-[[4-[4-(4-isopropylpiperazin-1-yl)phenyl]-1H-pyrrolo[3,2-c]pyridin-2-yl]methyl]-7-azaspiro[3.5] nonan-2-ol] belongs 100%; to `CC(C)N1CCN(c2ccc(-c3nccc4[nH]c(CN5CC(F)C5)cc34)cc2)CC1` [Example A16, 2-[(3-fluoroazetidin-1-yl)methyl]-4-[4-(4-isopropylpiperazin-1-yl)phenyl]-1H-pyrrolo[3,2-c]pyridine], 100%.
Under `CC(C)N1CCN(c2ccc(-c3nccc4[nH]c(CN5CCCCC5)cc34)cc2)CC1` [Example A17, 4-[4-(4-isopropylpiperazin-1-yl)phenyl]-2-(1-piperidylmethyl)-1H-pyrrolo[3,2-c]pyridine] stands 100%; under `CC(C)N1CCN(c2ccc(-c3nccc4[nH]c(CN5CCC(F)CC5)cc34)cc2)CC1` [Example A24, 2-[(4-fluoro-1-piperidyl)methyl]-4-[4-(4-isopropylpiperazin-yl)phenyl]-1H-pyrrolo[3,2-c] pyridine], 95.1%.
Regarding `CN1CCN(c2ccc(-c3nccc4[nH]c(CN5CCC(F)CC5)cc34)cc2)CC1` [Example A25, 2-[(4-fluoro-1-piperidyl)methyl]-4-[4-(4-methylpiperazin-1-yl)phenyl] - 1H-pyrrolo[3,2-c]pyridine], the inhibition at 1 µM turned out to be 95.2%.
Under `Cc1cc2[nH]c(Cn3cccn3)cc2c(-c2ccc(N3CCN(C(C)C)CC3)cc2)n1` [Example A28, 4-[4-(4-isopropylpiperazin-1-yl)phenyl]-6-methyl-2-(pyrazol-1-ylmethyl)-1H-pyrrolo[3,2-c]pyridine] stands 91%; under `Cc1cc2[nH]c(CN3CCC4(CC3)CC(O)C4)cc2c(-c2ccc(N3CCN(C(C)C)CC3)cc2)n1` [Example A29, 7-[[4-[4-(4-isopropylpiperazin-1-yl)phenyl]-6-methyl-1H-pyrrolo[3,2-c]pyridin-2-yl]methyl]-7-azaspiro[3.5] nonan-2-ol], 100%; under `Cc1cc2[nH]c(CN3CCC4(CC3)CC(C)C4)cc2c(-c2ccc(N3CCN(C(C)C)CC3)cc2)n1` [Example A30, 4-[4-(4-isopropylpiperazin-1-yl)phenyl]-6-methyl-2-[(2-methyl-7-azaspiro[3.5]nonan-7-yl)methyl]-1H-pyrrolo[3,2-c]pyridine], 96.7%.
To `CC(C)N1CCN(c2ccc(-c3nc(C4CC4)cc4[nH]c(CN5CCOCC5)cc34)cc2)CC1` [Example A33, 4-[[6-cyclopropyl-4-[4-(4-isopropylpiperazin-1-yl)phenyl]-1H-pyrrolo[3,2-c]pyridin-2-yl]methyl] morpholine] belongs 90.4%; to `CN1CCN(c2ccc(-c3nc(C4CC4)cc4[nH]c(CN5CCOCC5)cc34)cc2)CC1` [Example A34, 4-[[6-cyclopropyl-4-[4-(4-methylpiperazin-1-yl)phenyl]-1H-pyrrolo[3,2-c]pyridin-2-yl]methyl] morpholine], 82%; to `Cc1cc2c(cc(CN3CCOCC3)n2C)c(-c2ccc(N3CCN(C(C)C)CC3)cc2)n1` [Example A35, 4-[[4-[4-(4-isopropylpiperazin-1-yl]phenyl]-1,6-dimethyl-pyrrolo[3,2-c]pyridin-2-yl]methyl] morpholine], 96.3%.
For `Cc1nc(-c2ccc(N3CCN(C(C)C)CC3)cc2)c2cc(CN3CCOCC3)[nH]c2c1C` [Example A36, 4-[[4-[4-(4-isopropylpiperazin-1-yl)phenyl]-6,7-dimethyl-1H-pyrrolo[3,2-c]pyridin-2-yl]methyl] morpholine], the inhibition at 1 µM came out at 96.7%.
With `Cc1nc(-c2ccc(N3CCN(C)CC3)cc2)c2cc(CN3CCOCC3)[nH]c2c1C` [Example A37, 4-[[6,7-dimethyl-4-[4-(4-methylpiperazin-1-yl)phenyl]-1H-pyrrolo[3,2-c]pyridin-2-yl]methyl] morpholine], the inhibition at 1 µM is 100%.
To `CCN1CCN(c2ccc(-c3nc(C)c(C)c4[nH]c(CN5CCOCC5)cc34)cc2)CC1` [Example A38, 4-[[4-[4-(4-ethylpiperazin-1-yl)phenyl]-6,7-dimethyl-1H-pyrrolo[3,2-c]pyridin-2-yl]methyl] morpholine] belongs 98.5%; to `Cc1nc(-c2ccc(N3CCN(C(C)C)CC3)cc2)c2cc(CN3CCCCC3)[nH]c2c1C` [Example A39, 4-[4-(4-isopropylpiperazin-1-yl)phenyl]-6,7-dimethyl-2-(1-piperidylmethyl)-1H-pyrrolo[3,2-c]pyridine], 74.3%.
To `Cc1nc(-c2ccc(N3CCN(C(C)C)CC3)cc2)c2cc(CN3CCCC3)[nH]c2c1C` [Example A40, 4-[4-(4-isopropylpiperazin-1-yl)phenyl]-6,7-dimethyl 2-(pyrrolidin-1-ylmethyl)-1H-pyrrolo[3,2-c)pyridine] belongs 80%.
Consider `c1cc2[nH]c(CN3CCOCC3)cc2c(-c2ccc(N3CCNCC3)cc2)n1` [Example A42, 4-[[4-(4-(piperazin-1-yl)phenyl)-1H-pyrrolo[3,2-c]pyridin-2-yl]methyl] morpholine], for which the inhibition at 1 µM came out at 96%.
